Experimental data as given in patent publication US11642336B2, “5-HT2A agonists for use in treatment of depression” (priority 2019, dated 2023).
Structures can show the parent of a compound that is named as a salt. Where two headings read alike, the source gives them in different places. Marks after values point to notes of the source that are not given here.

How the values were obtained:
Assay type in all cases: cell-based
human 5-HT2A [1] = molecular target: T1, human 5-HT2A (Homo sapiens (Human), UniProt P28223); assay: cell-based; conditions: for Selectivity EC50 5-HT2C/EC50 5-HT2A: Ca2+/Fluo-4 assay, bounds are conservative estimates
5-HT2C = 5-HT2C (Homo sapiens (Human), UniProt P28335); assay: Ca2+/Fluo-4 assay, stable h5-HT2C-HEK293 cell line; conditions: for 5-HT2C Rmax ± S.E.M: % of the Rmax of 5-HT; for 5-HT2C agonist activity (n.a./w.a.): tested up to 50 μM;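 as to all read-outs here: Agonist-induced intracellular Ca2+ rise read by Fluo-4 fluorescence in HEK293 cells stably expressing the human 5-HT2C receptor, each compound run in duplicate on three or more occasions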
Sequence of 5-HT2C (P28335 whole entry, looked up): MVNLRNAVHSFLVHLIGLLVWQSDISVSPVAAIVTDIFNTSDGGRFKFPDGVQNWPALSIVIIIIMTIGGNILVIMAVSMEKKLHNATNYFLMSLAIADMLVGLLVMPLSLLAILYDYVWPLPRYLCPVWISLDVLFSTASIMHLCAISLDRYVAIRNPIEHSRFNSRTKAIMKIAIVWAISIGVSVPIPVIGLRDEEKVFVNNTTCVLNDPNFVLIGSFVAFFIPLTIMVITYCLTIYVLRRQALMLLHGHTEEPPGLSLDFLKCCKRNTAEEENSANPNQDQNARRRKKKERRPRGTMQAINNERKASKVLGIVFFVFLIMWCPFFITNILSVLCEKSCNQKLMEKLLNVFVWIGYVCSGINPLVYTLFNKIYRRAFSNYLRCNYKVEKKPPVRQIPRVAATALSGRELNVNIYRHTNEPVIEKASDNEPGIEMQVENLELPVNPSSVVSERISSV
Method: The functional properties of the compounds were characterised at stable HEK293 cell lines stably expressing the human 5-HT2A receptor or human 5-HT2C receptor in the Ca^2+/Fluo-4 assay essentially as previously described.^10 Briefly, the cells were split into poly-D-lysine-coated black 96-well plates with clear bottoms (6×10^4 cells/well). The following day the culture medium was aspirated and the cells were incubated in 50 μl assay buffer [Hanks Buffered Saline Solution containing 20 mM HEPES, 1 mM CaCl2, 1 mM MgCl2, 2.5 mM probenecid, pH 7.4] supplemented with 6 mM Fluo-4/AM at 37° C. for 1 hour. Next, the buffer was aspirated, the cells were washed once with 100 μl assay buffer, and then 100 μl assay buffer was added to the cells (in the antagonist experiments the compound was added at this point). […] The compounds were characterized in duplicate at least three times at each cell line.

human 5-HT2A [2] = molecular target: T1, human 5-HT2A; assay: cell-based; conditions: IP assay; for 5-HT2A Rmax: % of Rmax of 5-HT; for EC50: duplicate determinations
5-HT2B = 5-HT2B (Homo sapiens (Human), UniProt P41595); assay: IP assay (Eurofins, IP1 HTRF), HEK293 cells; conditions: for 5-HT2B Rmax: % of Rmax of 5-HT; for Selectivity EC50 5-HT2B/EC50 5-HT2A: bounds are conservative estimates; for EC50: duplicate determinations, read-out: 5-HT2B EC50;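 as to all read-outs here: agonist effect read as cellular IP1 production by HTRF using a europium cryptate anti-IP1 antibody donor and D2-labeled IP1 acceptor, eight compound concentrations in each cell line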
Sequence of 5-HT2B (P41595 whole entry, looked up): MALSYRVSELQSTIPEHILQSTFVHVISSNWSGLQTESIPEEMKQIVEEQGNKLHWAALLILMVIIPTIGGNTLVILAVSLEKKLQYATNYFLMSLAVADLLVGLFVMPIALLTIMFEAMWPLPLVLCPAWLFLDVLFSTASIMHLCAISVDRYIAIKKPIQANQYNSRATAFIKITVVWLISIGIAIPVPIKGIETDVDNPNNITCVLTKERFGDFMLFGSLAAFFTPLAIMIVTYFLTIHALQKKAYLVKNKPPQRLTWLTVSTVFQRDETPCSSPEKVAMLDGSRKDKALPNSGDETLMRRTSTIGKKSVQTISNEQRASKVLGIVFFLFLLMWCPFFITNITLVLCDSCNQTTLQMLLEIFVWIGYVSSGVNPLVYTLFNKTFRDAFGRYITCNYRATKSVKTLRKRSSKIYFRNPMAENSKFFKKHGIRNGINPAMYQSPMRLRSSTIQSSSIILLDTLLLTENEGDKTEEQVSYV
Method: The agonist properties of the compounds were characterized at HEK293 cell lines expressing the human 5-HT2A, human 5-HT2B or human 5-HT2C receptors in an IP assay essentially as previously described.^19 The testing was performed by Eurofins. In the assay, the agonist activity of the compound at the receptors is investigated by measuring its effect on IP1 production in the cell using the Homogeneous Time Resolved Fluorescence (HTRF) detection method. […] Following incubation, the cells were lysed, and the fluorescence acceptor (D2-labeled IP1) and fluorescence donor (anti-IP1 antibody labeled with europium cryptate) were added. […] The test compounds were characterized in eight different concentrations in duplicate at each of the three cell lines.

[3] = agonist potency, n = 3-4, read-out: 5-HT2A EC50
[4] = agonist potency, n = 3-4, read-out: 5-HT2C EC50
[5] = % of the Rmax of 5-HT, hydrochloride
[6] = agonist potency, n = 3-4, read-out: 5-HT2A [pEC50 ± S.E.M.] (converted)

Structure (SMILES)	5-HT2A Rmax ± S.E.M (human 5-HT2A [1]; % of the Rmax of 5-HT) [%]	Selectivity EC50 5-HT2C/EC50 5-HT2A (human 5-HT2A [1])	EC50 (human 5-HT2A [1]; [3]) [nM]	EC50 (5-HT2C; [4]) [nM]	5-HT2A Rmax (human 5-HT2A [2]) [%]	EC50 (human 5-HT2A [2]) [nM]	5-HT2B Rmax (5-HT2B) [%]	Selectivity EC50 5-HT2B/EC50 5-HT2A (5-HT2B)	EC50 (5-HT2B) [nM]	EC50 (human 5-HT2A [1]; [6]) [nM]	other results
COc1cc(C(F)(F)F)c(OC)cc1[C@@H]1CNC[C@@H](C)C1.Cl (relative stereo) [Compound 36, cis or trans 3-(2,5-dimethoxy-4-(trifluoromethyl)phenyl)-5-methylpiperidine hydrochloride]	68 ± 2	8.2	48	400	61	41	39	2.9	120		5-HT2A [pEC50 ± S.E.M.] (human 5-HT2A [1]; agonist potency, n = 3-4): [7.32 ± 0.10]; 5-HT2C Rmax ± S.E.M (5-HT2C): 43 ± 6%; 5-HT2C [pEC50 ± S.E.M.] (5-HT2C; agonist potency, n = 3-4): [6.40 ± 0.09]
COc1cc(C(F)(F)F)c(OC)cc1C1CCC(C)NC1 (single isomer, unassigned) [Compound 37, 5-(2,5-dimethoxy-4-(trifluoromethyl)phenyl)-2-methylpiperidine hydrochloride]			270	3400		1500			620	263	5-HT2A Rmax ± S.E.M (human 5-HT2A [1]; [5]): 90 ± 10%; Selectivity EC50 5-HT2C/EC50 5-HT2A (human 5-HT2A [1]; hydrochloride): 13; 5-HT2C Rmax ± S.E.M (5-HT2C): 33 ± 5%; 5-HT2A Rmax (human 5-HT2A [2]; hydrochloride): 110%; 5-HT2B Rmax (5-HT2B; hydrochloride): 54%; Selectivity EC50 5-HT2B/EC50 5-HT2A (5-HT2B; hydrochloride): 0.4
COc1cc(C(F)(F)F)c(OC)cc1C1CCC(C)NC1 (single isomer, unassigned) [Compound 38, 5-(2,5-dimethoxy-4-(trifluoromethyl)phenyl)-2-methylpiperidine hydrochloride]			160			120			2200	155	5-HT2A Rmax ± S.E.M (human 5-HT2A [1]; [5]): 38 ± 4%; Selectivity EC50 5-HT2C/EC50 5-HT2A (human 5-HT2A [1]; hydrochloride): >300^e; 5-HT2C agonist activity (n.a./w.a.) (5-HT2C): w.a.; 5-HT2A Rmax (human 5-HT2A [2]; hydrochloride): 60%; 5-HT2B Rmax (5-HT2B; hydrochloride): 29%; Selectivity EC50 5-HT2B/EC50 5-HT2A (5-HT2B; hydrochloride): 18
COc1cc([C@@H]2CCCNC2)c(OC)cc1Cl [Compound 10, (S)-3-(4-Chloro-2,5-dimethoxyphenyl)piperidine]			66	> 50000	62	380	50		240		5-HT2C agonist activity (n.a./w.a.) (5-HT2C): n.a. [@ 50 μM]^a (no agonist activity: the compound did not evoke significant responses at concentrations up to 50 μM)
COc1cc([C@@H]2CCCNC2)c(OC)cc1Br [Compound 12, (S)-3-(4-bromo-2,5-dimethoxyphenyl)piperidine]			69	> 50000	70	250	48		190		
COc1cc([C@@H]2CCCNC2)c(OC)cc1I [Compound 14, (S)-3-(4-Iodo-2,5-dimethoxyphenyl)piperidine]				> 50000	72	45	57		170	37.2	
COc1cc([C@@H]2CCCNC2)c(OC)cc1C#N [Compound 16, (S)-2,5-dimethoxy-4-(piperidin-3-yl)benzonitrile]			270	> 50000	77	980	45		5000	275	
COc1cc([C@@H]2CCCNC2)c(OC)cc1SC.Cl [Compound 18, (S)-3-(2,5-dimethoxy-4-(methylthio)phenyl)piperidine hydrochloride]				510	72	270	64		180	25.7	
CCOc1cc([C@@H]2CCCNC2)c(OC)cc1C(F)(F)F.Cl [Compound 20, (S)-3-(5-ethoxy-2-methoxy-4-(trifluoromethyl)phenyl)piperidine hydrochloride]	95 ± 1		10	290	79	36	57		580	10.2	
CCOc1cc(C(F)(F)F)c(OCC)cc1[C@@H]1CCCNC1.Cl [Compound 22, (S)-3-(2,5-diethoxy-4-(trifluoromethyl)phenyl)piperidine hydrochloride]	47 ± 6	>300^e	100		54	170		>1,000^c	> 100000	102	
COc1cc([C@@H]2CCCNC2)c(OC)cc1C.Cl [Compound 24, (S)-3-(2,5-dimethoxy-4-methylphenyl)piperidine hydrochloride]			100		67	560	38		360	105	
COc1cc([C@@H]2CCCNC2)c(OC)cc1SC(C)C [Compound 26, (S)-3-(4-(isopropylthio)-2,5-dimethoxyphenyl)piperidine]			160		72	1100	43		1200	155	
CCSc1cc(OC)c([C@@H]2CCCNC2)cc1OC.Cl [Compound 28, (S)-3-(2,5-dimethoxy-4-(ethylthio)phenyl)piperidine hydrochloride]					62	180	55		240		
CCOc1cc(C(F)(F)F)c(OC)cc1[C@@H]1CCCNC1.Cl [Compound 30, (S)-3-(2-ethoxy-5-methoxy-4-(trifluoromethyl)phenyl)piperidine hydrochloride]	40 ± 3				35	140	26		1200	38	
CCc1cc(OC)c([C@@H]2CCCNC2)cc1OC.Cl [Compound 32, (S)-3-(4-ethyl-2,5-dimethoxyphenyl)piperidine hydrochloride]	79 ± 4				85	110	54		280	40.7	
CCOc1cc([C@@H]2CCCNC2)c(OC)cc1CC.Cl [Compound 34, (S)-3-(5-ethoxy-4-ethyl-2-methoxyphenyl)piperidine hydrochloride]	88 ± 4	16	52	840	78	160	50	5.4	860	51.3	5-HT2C Rmax ± S.E.M (5-HT2C): 28 ± 4%
COc1cc(C(F)(F)F)c(OC)cc1C1CCCNC1C.Cl (stereo not drawn) [Compound 35, 3-(2,5-dimethoxy-4-(trifluoromethyl)phenyl)-2-methylpiperidine hydrochloride]	75 ± 4	41	73	3000	70	260	28	3.3	850		5-HT2C Rmax ± S.E.M (5-HT2C): 21 ± 2%; EC50 (5-HT2C; agonist potency, n = 3-4, read-out: 5-HT2C [pEC50 ± S.E.M.] (converted)): 2950 nM
COc1cc([C@@H]2CCCNC2)c(OCF)cc1C(F)(F)F [Compound 39, (S)-3-(2-(fluoromethoxy)-5-methoxy-4-(trifluoromethyl)phenyl)piperidine]	40 ± 5	>300^e	150		60	300	54	3.6	1100		
CCOc1cc(CC)c(OC)cc1[C@@H]1CCCNC1 [Compound 43, (S)-3-(2-ethoxy-4-ethyl-5-methoxyphenyl)piperidine]	42 ± 6	>1,000^e	140	> 50000	45	670	11	1.6	1100	138	
COc1cc(C(F)(F)F)c(F)cc1[C@@H]1CCCNC1.Cl [Compound 51, (S)-3-(5-fluoro-2-methoxy-4-(trifluoromethyl)phenyl)piperidine hydrochloride]	79 ± 5	>100^e	140		59	260	37	2.8	740		
COc1cc(C(F)(F)F)c(OC)cc1[C@@H]1CCCN(C)C1 [Compound 61, (S)-3-(2,5-dimethoxy-4-(trifluoromethyl)phenyl)-1-methylpiperidine]	19 ± 2		390	920						398	loss of potency at 5-HT2A compared to compound 8 (factor) (human 5-HT2A [1]; nitrogen substituents (tertiary amines)): ~20
COc1cc(CC(C)N)c(OC)cc1I (stereo not drawn) [drawing 22, reference compound]											5-HT2A Rmax ± S.E.M (human 5-HT2A [1]): 88 ± 7%; EC50 (5-HT2C; 5-HT2C [pEC50 ± S.E.M.], agonist potency, n = 3-4): 3.39 nM; 5-HT2C Rmax ± S.E.M (5-HT2C): 83 ± 8%
